Data reported in patent US11360104B2, “Microbial-based biosensors” (TRUSTEES OF BOSTON UNIVERSITY, priority 2017, dated 2022).
Read-outs that look alike come from different tables or passages of the source.

Experiments:
[1] = system: Pimelobacter simplex PinR (AIY20223.2; SEQ ID NO: 1), his-tagged (AIY-his6); assay: QD-FRET steroid sensor (QD-PinR + DNA-Cy5), steroid-induced TF-DNA unbinding; format: biochemical
Procedure: Fluorescent spectra were analyzed using MATLAB (Mathworks) and were fitted with a sum of 2 Gaussians (D=QD: FWHM=27 nm, λmax=607 nm; A=DNA-Cy5: FWHM=40 nm, λmax=669 nm). The area of each Gaussian was extracted and FD and FA are obtained respectively for the fluorescence of QD (donor) and Cy5 (acceptor).
Raw dose-response curves were obtained by plotting FA/FD as a function of the steroid concentration. Sensor output is the normalization of the fluorescent spectra of the donor and acceptor according to the following equation: […]
Non-normalized dose-response were fitted with Origin Pro 8 software with the non-linear equation: […]
The cross-reactivity of progesterone regarding the different steroids was calculated with the following equation: […]
CdSe/CdS/ZnS QDs were coated with a zwitterionic polymer bearing histamine anchoring functions (P1, SI). Once the hydrophobic QDs were transferred into H2O using a biphasic ligand exchange, his-tagged TFs were self-assembled on the QD surface to produce the QD-TF. Addition of the double stranded, Cy5-labeled TF-binding sequence completed probe assembly as the oligo binds to the TF in the absence of progesterone (PRG). The molar ratios of the QD, TF, and DNA in the sensor were controlled through the stoichiometric ratios of the mixed parts.
Two fluorescent spectra were recorded, one from the QDs and one from the Cy5 due to the FRET.
First, the DNA1 (most binding sequence) has been used to build the first biosensor, named sensor 1. For this sensor, a ratio of QD/TF/DNA of 1/4/18 was chosen. […] In order to homogenize the fluorescent signals in between batches and different sensor variations, FA/FD was normalized to give the signal output. Signal output is then plotted against PRG concentration to give a dose-response curve (FIG. 9C) This curve was fitted with the non-linear equation XX to obtain the half-maximal inhibitory concentration (IC50) (Table 13).
Description for a typical experiment, using a molar ratio of QD/TF/DNA=1/4/18. QDs in (275 uL, 0.15 uM in HEPES 1×, pH 7.6 with 1% BSA) were mixed with AIY-his6 (275 uL, 0.6 uM in HEPES 1× pH 7.6) at room temperature for 45 min. Then, the double-stranded DNA labelled with a Cy5 fluorescent probe at the 3′ and 5′ ends (275 uL, 2.7 uM in HEPES 1× pH 7.6) was added to the mixture. After 30 min, 220 uL of HEPES 1× pH 7.5 and 330 uL of 5× binding buffer (25 mM MgCl2, 25% glycerol, and 250 mg/L Invitrogen™ UltraPure™ Salmon Sperm DNA in Tris-HCl 0.1M) were added and the mixture is left 15 more min at RT.
50 uL of the sensor (QD/TF/DNA) was then splitted in 3×9 centrifuge tubes to which 10 uL of progesterone at the desired concentration is added. As such, the final concentration of QD/TF/DNA for the measurements is 25 nM/100 nM/450 nM. A 384 well plate was filled with 60 uL of each solution. The fluorescence intensity was monitored on a spectrofluorimeter from 535 nm to 800 nm exciting at 400 nm, equipped with a 450 nm long-pass filter in emission.

[2] = system: P. simplex bacteria (steroid responsive genome island, SRGI); assay: RNA-Seq screen of steroid treated P. simplex against solvent controls; format: cell-based, Pimelobacter simplex; conditions: Log2 fold change vs solvent control
From the text: (§1) In order to identify steroid binding Transcription Factors, a whole transcriptome RNA sequencing (RNA-Seq) screen was developed (FIG. 7). The growth of Pimelobacter simplex bacteria was profiled with respect to the starting inoculation density, solvent toxicity, and the addition of steroids (FIG. 16). […] P. simplex bacteria were screened against the steroid solvents ethanol (EtOH) and dimethyl sulfoxide (DMSO). […] Steroid growth curves were similarly performed using a starting OD of 0.005 and constant solvent dosing with titrations of steroids. […] P. simplex bacteria were grown in the presence of 700 μM testosterone, 21.88 μM progesterone, 87.50 μM estrone, 21.88 μM 17β-estradiol, 21.88 μM hydrocortisone, or 175.00 μM aldosterone concentrations were selected for comparison.
(§2) Using accession gene tags, genes were annotated for steroid relevant enzymes or transcription factors. […] Allosteric TF binding sequences are often palindromes and typically located near the start of its gene location in an intergenic space. With such a design, the allosteric TF can regulate itself or the open reading frame (ORF) near it in response to its effector molecule. […] Once identified, the TFs were cloned and recombinantly expressed for thorough characterization.
(§3) Cells were grown in 6 mL volumes of media at the OD, solvent, and steroid concentrations found from the growth curves in 14 mL polypropylene round-bottom tubes (Corning #352059) in technical duplicate. The same controls as in the steroid exposure growth curve were used for setting up RNA extraction samples. The cells were incubated at their corresponding temperature with continuous orbital shaking at 150 rpm until the end of lag-phase, mid-log phase, or stationary phase from the start of inoculation. Afterward, samples were removed and a 1:1 ratio of RNAprotect Bacteria Reagent (Qiagen #76506) was added followed by spinning down at 4° C. for 10 minutes at 4000 g. Supernatant was removed and the pellet re-suspended in 300 μL of RNAprotect and transferred into 2.0 mL Safe-Lock Tubes (Eppendorf #3101). The samples were then spun down once again at 4° C. for 10 minutes at 10000 g. Once the supernatant has been removed the samples were placed on ice and ready for RNA extraction. RNA extraction was done by Qiacube (Qiagen #9001292) set to the RNeasy Protect Bacteria Mini Kit protocol of bacterial cell pellet with enzymatic lysis. Tube A was prepared as described except with the addition of 150 mg/mL lysozyme (Sigma-Aldrich #L6876) and 20 mg/mL proteinase K (Roche #03115879001) all diluted in 1xTE buffer. RNA samples were subsequently quantified using Qubit RNA HS Assay Kit (Thermo Fisher Scientific #Q32852) and analyzed using a RNA 6000 Pico Kit (Agilent 5067-1513) in a 2100 Bioanalyzer (Agilent G2939A). RNA samples were either immediately used for RNA-Seq library preparation or stored long-term at −80° C.
(§4) RNA-Seq libraries were then produced from these samples using a slightly modified ScriptSeq v2 RNA-Seq Library Preparation Kit (Illumina 455A/22124) ensuring use of unique index primers through ScriptSeq Index PCR Primers (Sets 1-4) 48 rxns/set (Illumina #SSIP1234).

[3] = system: Pimelobacter simplex; assay: Solvent and steroid exposure growth curves
From the text: as §1
In order to properly determine the doubling time of the strain, growth curves were performed. All growth curves were done in 100 μL per well volumes in 96 well flat clear bottom black polystyrene TC-treated microplates which were individually wrapped with a lid and sterile (Corning #3603). Measurements were done by an Infinite M200 Pro (TECAN) spectrophotometer at the temperature suited for P. simplex. Readings were performed over 96 cycles of 15 minutes each at 600 nm absorbance with 25 flashes in a 3×3 (XY-Line) type reads per well. In between reads there was orbital shaking at 150 rpm frequency for a total of 10 minutes. In order to characterize the growth alone, a ½ serial dilution of 9 concentrations from 0.5-0.0020 OD600 nm were prepared in the respective media. Then each concentration was measured as previously described using a microplate reader (TECAN) and normalized against a media background control in technical triplicate. Afterward, an appropriate starting concentration of cells was chosen with a substantially long lag-phase, linear log phase, and a plateau of stationary-phase.
Once an appropriate starting cell concentration was chosen, a secondary growth curve was performed to test the toxicity levels of the solvents used to dissolve steroids of interest. Since the steroids used are heavily hydrophobic, they often need to be dissolved in organic solvents such as DMSO or ethanol which are toxic to bacteria at high concentrations. P. simplex was incubated under microplate reader conditions previously mentioned at a starting OD determined by the first growth curve with DMSO, ethanol, or H2O at ½ serial dilutions for a total of eight concentrations (50-0.39%) tested in technical triplicate. Two controls were included per solvent; a positive control without solvent and a media control which allowed for appropriate normalization. Solvent exposure growth curves allowed for choosing the maximum amount of solvent concentration that strains would sustain while maintaining relative viability in order to determine a range of steroid concentrations which could be used.
A tertiary growth curve was performed to test the toxicity levels of steroid specific to P. simplex. The strain was incubated under microplate reader conditions previously mentioned at a starting OD determined by the first growth curve and the highest solvent concentration corresponding to the steroid of interest with steroid at ½ serial dilutions for a total of seven concentrations tested in singlet. Testosterone, progesterone, 17β-estradiol, hydrocortisone, and aldosterone were all dissolved in ethanol while estrone was dissolved in DMSO. Three controls were included for each steroid; a positive control with the highest tolerable solvent concentration (%), a positive control with media, and a media control which allowed for normalization. Steroid exposure growth curves allowed for choosing the maximum amount of steroid concentration that P. simplex would sustain while maintaining relative viability.

[4] = target: PinR (Nocardioides simplex (Pimelobacter simplex), UniProt A0A0A1DUF2); assay: Cross-reactivity assay of steroids using sensor 3; format: biochemical; conditions: for % cross-reactivity: relative to progesterone; for % cross-reactivity / P (slope of fit): sensor 3, HEPES 1×
Chain of PinR (A0A0A1DUF2 entry or part of it): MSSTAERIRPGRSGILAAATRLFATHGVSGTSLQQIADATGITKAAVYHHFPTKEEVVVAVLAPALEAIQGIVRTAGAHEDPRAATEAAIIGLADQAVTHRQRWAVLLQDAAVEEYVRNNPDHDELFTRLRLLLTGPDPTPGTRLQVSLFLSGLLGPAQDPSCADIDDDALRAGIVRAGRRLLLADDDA
Procedure: The cross-reactivity of progesterone regarding the different steroids was calculated with the following equation:
Description for a typical experiment, using a molar ratio of QD/TF/DNA=1/4/18.
50 uL of the sensor (QD/TF/DNA) was then splitted in 3×9 centrifuge tubes to which 10 uL of progesterone at the desired concentration is added. […] A 384 well plate was filled with 60 uL of each solution. The fluorescence intensity was monitored on a spectrofluorimeter from 535 nm to 800 nm exciting at 400 nm, equipped with a 450 nm long-pass filter in emission.

[5] = system: steroid responsive genome island (SRGI); assay: Whole transcriptome RNA-Seq of steroid treated P. simplex; format: cell-based, Pimelobacter simplex; conditions: P. simplex exposed to steroid vs solvent control, Log2 fold change
From the text: as §1, §2, §3, §4

[6] = P. simplex, starting OD 0.005, constant solvent

SMILES | effect on sensor binding/unbinding (in words) ([1]; QD:TF:oligo 1:4:6, [QD]=50 nM) | upregulation of genes inside the SRGI (in words) [2] | highest steroid concentration exhibiting normal growth profile [3, 6] [µM] | cross-reactivity (in words) ([1]; sensor 3 in HEPES 1×, 0 to 10 uM steroid) | IC50 [4] [nM] | % cross-reactivity [4] [%] | P (slope of fit) [4] | upregulation of genes inside the SRGI [5] | highest steroid concentration exhibiting normal growth profile [3] [µM]
C[C@]12CC[C@@H]3c4ccc(O)cc4CC[C@H]3[C@@H]1CC[C@@H]2O [ESD, 17β-Estradiol] | no impact on the sensor binding/unbinding | not when exposed to 17β-estradiol and estrone | – | – | – | – | – | – | –
C[C@]12CC[C@@H]3c4ccc(O)cc4CC[C@H]3[C@@H]1CCC2=O [ESN, Estrone] | – | not when exposed to 17β-estradiol and estrone | 87.50 | No cross-reactivity was observed | – | – | – | – | –
C[C@]12CCC(=O)C=C1CC[C@@H]1[C@@H]2[C@@H](O)C[C@@]2(C)[C@H]1CC[C@]2(O)C(=O)CO [CRT, Hydrocortisone] | – | upregulation of genes inside the SRGI were observed | – | – | 180 ± 19 | 33 ± 3 | 1.23 ± 0.13 | observed | 21.88
C[C@]12CCC(=O)C=C1CC[C@@H]1[C@@H]2[C@@H](O)C[C@]2(C=O)[C@@H](C(=O)CO)CC[C@@H]12 [ALD, Aldosterone] | – | upregulation of genes inside the SRGI were observed | – | – | 289 ± 36 | 20 ± 2 | 1.65 ± 0.28 | observed | 175.00
C[C@]12CC[C@H]3[C@@H](CCC4=CC(=O)CC[C@@]43C)[C@@H]1CC[C@@H]2O [testosterone, Testosterone] | – | upregulation of genes inside the SRGI were observed | 700 | – | – | – | – | observed | –
